Experimental data taken from ChEMBL document CHEMBL5223065, “Targeting the protease of West Nile virus” (RSC Med Chem, 2021).
*1 amine or outer side, *2 acyl side, *3 side chain or, on linkers, in order; H or OH if unused. Where a SMILES comes first, the peptide text is derived from it. [ ]: non-standard residue; d: D form. X1 = N=C(N)N[C@@H](CCCCN[*:1])C(=O)[*:2]; βAla = NCCC(=O)O

How the values were obtained:
[1] = tested on: West Nile virus; test: Antiviral activity against West Nile virus New York 99 infected in golden hamster BHK-21 cells co-expressing renilla luciferase assessed as inhibition of viral […] replication incubated for 24 hrs; format: functional, organism-based; conditions: New York 99, BHK-21, 24 h
[2] = Cytotoxicity against golden hamster BHK-21 cells incubated for 24 hrs by ATP-lite assay; format: toxicity, cell-based, Mesocricetus auratus
[3] = Cytotoxicity against human A549 cells incubated for 42 hrs by MTT assay; format: toxicity, cell-based
[4] = tested on: West Nile virus; test: Antiviral activity against West Nile virus NY003356V2 infected in human A549 cells measured after 48 hrs by plaque reduction assay; format: functional, organism-based; conditions: NY003356V2, A549, 48 h
[5] = tested on: dengue virus type 2; test: Antiviral activity against DENV2 New Guinea C infected in human A549 cells measured after 48 hrs by plaque reduction assay; format: functional, organism-based; conditions: A549, 48 h
[6] = tested on: Zika virus; test: Antiviral activity against Zika virus Puerto Rico strain PRVABC59 infected in human A549 cells measured after 48 hrs by plaque reduction assay; format: functional, organism-based; conditions: Puerto Rico strain PRVABC59, A549, 48 h
[7] = target: Coagulation factor X (Homo sapiens, UniProt P00742); test: Inhibition of factor Xa (unknown origin) using CH3OCO-dCha-Gly-Arg-pNA as substrate by […] plate reader analysis
[8] = target: Prothrombin (Homo sapiens, UniProt P00734); test: Inhibition of thrombin (unknown origin) using CH3SO2-dCha-Gly-Arg-pNA as substrate by […] plate reader analysis
[9] = tested on: West Nile virus; test: Inhibition of West Nile virus EG101 NS2BH-NS3 protease expressed in Escherichia coli Top10 F' cells using Boc-Gly-Lys-Arg-AMC as substrate preincubated with compound for 15 mins followed by substrate addition and measured after 15 mins by fluorescence based assay; conditions: time 30.0 min
[10] = Inhibition of DENV3 NS2B (50 to 95 residues)-NS3 (1 to 182 residues) protease expressed in Escherichia coli BL21-rosetta cells using Bz-Nle-Lys-Lys-Arg-AMC as substrate preincubated for 10 mins followed by substrate addition and measured every 30 secs; parameters: species or system dengue virus type 3
[11] = Cytotoxicity against African green monkey Vero cells incubated for 24 hrs by MTT assay; format: toxicity, cell-based; conditions: chlorocebus sabaeus
[12] = tested on: dengue virus type 1; test: Antiviral activity against DENV1 infected in African green monkey Vero cells assessed as inhibition of viral infection by virucidal assay; format: functional, organism-based
[13] = tested on: dengue virus type 2; test: Antiviral activity against DENV2 infected in African green monkey Vero cells assessed as inhibition of viral infection by virucidal assay; format: functional, organism-based
[14] = tested on: dengue virus type 3; test: Antiviral activity against DENV3 infected in African green monkey Vero cells assessed as inhibition of viral infection by virucidal assay; format: functional, organism-based
[15] = tested on: dengue virus type 4; test: Antiviral activity against DENV4 infected in African green monkey Vero cells assessed as inhibition of viral infection by virucidal assay; format: functional, organism-based
[16] = tested on: West Nile virus; test: Antiviral activity against West Nile virus NY99 infected in human A549 cells measured after 48 hrs by plaque reduction assay; format: functional, organism-based; conditions: NY99, A549, 48 h
[17] = target: Genome polyprotein (West Nile virus) (UniProt P06935); test: Inhibition of West Nile virus NS2B-NS3 protease using Bz-nKRR-AMC as substrate assessed as inhibition constant preincubated for 30 mins followed by substrate addition and measured after 60 mins by fluorescence based microplate reader analysis; conditions: time 90.0 min
Target sequence in this assay (P06935 whole entry): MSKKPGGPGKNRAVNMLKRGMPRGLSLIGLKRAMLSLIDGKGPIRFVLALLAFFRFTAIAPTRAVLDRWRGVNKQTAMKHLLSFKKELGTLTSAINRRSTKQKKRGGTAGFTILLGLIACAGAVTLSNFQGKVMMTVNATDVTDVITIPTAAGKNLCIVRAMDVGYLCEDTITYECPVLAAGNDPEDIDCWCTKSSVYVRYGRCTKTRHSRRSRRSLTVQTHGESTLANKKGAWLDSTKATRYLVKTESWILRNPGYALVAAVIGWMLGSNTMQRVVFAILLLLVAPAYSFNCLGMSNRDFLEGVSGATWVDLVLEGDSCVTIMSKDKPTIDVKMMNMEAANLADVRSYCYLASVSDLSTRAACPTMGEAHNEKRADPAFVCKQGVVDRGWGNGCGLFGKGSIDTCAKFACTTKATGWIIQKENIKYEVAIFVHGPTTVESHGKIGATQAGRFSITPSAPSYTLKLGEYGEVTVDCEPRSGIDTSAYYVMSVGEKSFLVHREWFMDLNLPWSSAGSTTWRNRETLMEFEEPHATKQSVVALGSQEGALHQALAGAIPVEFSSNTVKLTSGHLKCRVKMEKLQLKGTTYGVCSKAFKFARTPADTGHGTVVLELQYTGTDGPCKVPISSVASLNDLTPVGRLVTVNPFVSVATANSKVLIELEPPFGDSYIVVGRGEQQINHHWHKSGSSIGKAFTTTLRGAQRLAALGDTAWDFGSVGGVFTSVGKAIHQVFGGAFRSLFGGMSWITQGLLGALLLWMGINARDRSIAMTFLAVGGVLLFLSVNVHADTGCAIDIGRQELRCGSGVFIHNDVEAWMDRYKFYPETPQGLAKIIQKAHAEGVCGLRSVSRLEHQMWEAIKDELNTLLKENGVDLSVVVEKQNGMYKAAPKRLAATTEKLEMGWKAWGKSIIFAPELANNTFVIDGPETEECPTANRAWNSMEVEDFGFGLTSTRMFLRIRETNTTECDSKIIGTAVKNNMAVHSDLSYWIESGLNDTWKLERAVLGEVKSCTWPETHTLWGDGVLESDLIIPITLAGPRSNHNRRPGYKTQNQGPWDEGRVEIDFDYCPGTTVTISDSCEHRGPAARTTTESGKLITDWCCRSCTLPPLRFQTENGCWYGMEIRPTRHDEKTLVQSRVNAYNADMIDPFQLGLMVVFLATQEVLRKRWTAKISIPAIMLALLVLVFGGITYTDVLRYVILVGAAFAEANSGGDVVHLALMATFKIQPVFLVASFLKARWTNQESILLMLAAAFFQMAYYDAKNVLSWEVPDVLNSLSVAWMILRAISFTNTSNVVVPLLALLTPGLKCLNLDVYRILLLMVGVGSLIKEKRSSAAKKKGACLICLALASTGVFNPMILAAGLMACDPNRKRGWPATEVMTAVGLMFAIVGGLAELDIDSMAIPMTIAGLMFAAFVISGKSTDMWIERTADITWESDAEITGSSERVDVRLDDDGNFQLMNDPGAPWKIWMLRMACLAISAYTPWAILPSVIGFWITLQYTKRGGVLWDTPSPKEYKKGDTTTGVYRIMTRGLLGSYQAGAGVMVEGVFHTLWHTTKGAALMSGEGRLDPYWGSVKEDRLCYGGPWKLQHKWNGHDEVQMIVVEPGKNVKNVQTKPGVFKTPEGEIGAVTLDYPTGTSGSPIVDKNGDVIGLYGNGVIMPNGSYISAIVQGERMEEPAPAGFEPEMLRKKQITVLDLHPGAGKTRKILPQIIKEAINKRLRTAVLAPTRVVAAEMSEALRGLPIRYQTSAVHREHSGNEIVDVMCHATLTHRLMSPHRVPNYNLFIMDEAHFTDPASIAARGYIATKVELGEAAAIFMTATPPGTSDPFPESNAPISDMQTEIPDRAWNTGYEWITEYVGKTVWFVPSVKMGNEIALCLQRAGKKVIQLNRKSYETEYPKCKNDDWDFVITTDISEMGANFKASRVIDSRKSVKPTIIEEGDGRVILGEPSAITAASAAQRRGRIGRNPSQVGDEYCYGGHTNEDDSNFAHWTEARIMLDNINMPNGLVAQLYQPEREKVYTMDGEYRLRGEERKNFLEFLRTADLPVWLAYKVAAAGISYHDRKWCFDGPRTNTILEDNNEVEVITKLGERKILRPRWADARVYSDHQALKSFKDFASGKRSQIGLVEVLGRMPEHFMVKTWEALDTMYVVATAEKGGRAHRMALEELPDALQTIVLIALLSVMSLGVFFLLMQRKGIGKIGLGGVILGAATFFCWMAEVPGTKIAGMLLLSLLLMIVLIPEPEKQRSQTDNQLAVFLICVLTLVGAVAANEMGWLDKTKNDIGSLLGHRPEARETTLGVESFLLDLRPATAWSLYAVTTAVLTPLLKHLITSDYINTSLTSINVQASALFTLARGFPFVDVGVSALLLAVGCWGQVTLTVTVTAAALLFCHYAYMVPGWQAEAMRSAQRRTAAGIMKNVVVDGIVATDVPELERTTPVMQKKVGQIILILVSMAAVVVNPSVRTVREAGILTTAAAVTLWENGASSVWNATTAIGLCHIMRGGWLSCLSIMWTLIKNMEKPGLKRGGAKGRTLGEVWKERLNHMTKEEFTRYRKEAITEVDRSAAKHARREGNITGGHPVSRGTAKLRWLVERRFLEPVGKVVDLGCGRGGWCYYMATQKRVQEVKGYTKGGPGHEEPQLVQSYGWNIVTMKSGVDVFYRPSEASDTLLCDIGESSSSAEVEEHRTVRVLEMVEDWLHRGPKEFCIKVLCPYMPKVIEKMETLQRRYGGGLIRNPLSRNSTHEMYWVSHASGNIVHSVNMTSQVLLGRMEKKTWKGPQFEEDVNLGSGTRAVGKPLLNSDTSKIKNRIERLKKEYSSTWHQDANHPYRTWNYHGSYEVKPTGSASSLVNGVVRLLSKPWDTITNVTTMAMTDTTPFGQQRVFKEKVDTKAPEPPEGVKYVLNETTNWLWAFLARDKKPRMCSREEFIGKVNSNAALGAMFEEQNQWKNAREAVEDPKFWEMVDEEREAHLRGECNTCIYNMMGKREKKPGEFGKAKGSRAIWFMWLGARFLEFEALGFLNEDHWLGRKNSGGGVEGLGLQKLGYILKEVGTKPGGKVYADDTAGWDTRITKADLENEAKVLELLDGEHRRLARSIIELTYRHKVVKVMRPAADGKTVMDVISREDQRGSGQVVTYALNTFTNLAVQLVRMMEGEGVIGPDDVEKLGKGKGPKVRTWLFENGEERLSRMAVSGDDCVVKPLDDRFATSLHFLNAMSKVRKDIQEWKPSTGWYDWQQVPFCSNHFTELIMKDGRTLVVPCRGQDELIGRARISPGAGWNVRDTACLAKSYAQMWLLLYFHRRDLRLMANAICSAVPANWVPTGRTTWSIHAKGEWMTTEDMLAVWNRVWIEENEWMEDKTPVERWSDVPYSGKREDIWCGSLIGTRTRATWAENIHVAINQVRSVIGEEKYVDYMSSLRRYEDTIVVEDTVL

[18] = Cytotoxicity against golden hamster BHK-21 cells incubated for 24 hrs by CCK-8 assay; format: toxicity, cell-based, Mesocricetus auratus
[19] = tested on: dengue virus type 2; test: Antiviral activity against DENV2 infected in golden hamster BHK-21 cells preincubated with virus for 18 hrs followed by compound addition and measured after 24 hrs by plaque reduction assay; format: functional, organism-based
[20] = target: Genome polyprotein (West Nile virus) (UniProt P06935); test: Uncompetitive inhibition of recombinant West Nile virus NS2B-NS3 protease using Pyr-RTKR-AMC as substrate assessed as inhibition constant preincubated for 15 mins followed by substrate addition
Target sequence in this assay (P06935 1371-1501 limits assumed): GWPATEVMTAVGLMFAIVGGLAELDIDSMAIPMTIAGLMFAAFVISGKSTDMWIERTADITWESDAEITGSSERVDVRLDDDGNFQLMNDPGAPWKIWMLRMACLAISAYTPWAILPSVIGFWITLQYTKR
Target sequence in this assay (P06935 1502-2120 limits assumed): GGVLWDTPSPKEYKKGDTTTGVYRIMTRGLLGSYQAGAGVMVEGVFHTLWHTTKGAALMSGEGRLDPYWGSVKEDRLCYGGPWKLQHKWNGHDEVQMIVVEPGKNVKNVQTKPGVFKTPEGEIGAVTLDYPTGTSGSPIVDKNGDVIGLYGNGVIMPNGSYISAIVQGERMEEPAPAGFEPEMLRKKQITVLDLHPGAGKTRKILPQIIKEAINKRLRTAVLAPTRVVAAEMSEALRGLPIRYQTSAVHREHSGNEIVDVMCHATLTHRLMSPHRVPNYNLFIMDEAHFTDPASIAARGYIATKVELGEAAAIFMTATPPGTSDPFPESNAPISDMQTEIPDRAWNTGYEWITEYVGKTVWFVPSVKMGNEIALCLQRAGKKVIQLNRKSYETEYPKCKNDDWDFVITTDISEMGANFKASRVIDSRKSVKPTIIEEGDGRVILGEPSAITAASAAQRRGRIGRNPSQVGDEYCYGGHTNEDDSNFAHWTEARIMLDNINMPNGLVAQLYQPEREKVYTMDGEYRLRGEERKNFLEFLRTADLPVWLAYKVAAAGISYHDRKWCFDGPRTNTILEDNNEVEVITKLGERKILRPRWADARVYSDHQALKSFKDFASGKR

[21] = tested on: West Nile virus; test: Antiviral activity against West Nile virus infected in human A549 cells measured after 42 hrs by plaque reduction assay; format: functional, organism-based
[22] = tested on: Zika virus; test: Antiviral activity against Zika virus Puerto Rico strain PRVABC59 infected in human A549 cells measured after 42 hrs incubation under dark conditions by plaque reduction assay; format: functional, organism-based; conditions: Puerto Rico strain PRVABC59, A549, 42 h
[23] = tested on: dengue virus type 2; test: Antiviral activity against DENV2 infected in human A549 cells measured after 42 hrs by plaque reduction assay; format: functional, organism-based; conditions: A549, 42 h
[24] = Inhibition of Dengue virus 4 NS2B-NS3 protease using Benzoyl-Nle-Lys-Arg-Arg-AMC as substrate preincubated for 1 hrs followed by substrate addition and measured after 10 mins by fluorescence based plate reader analysis; parameters: species or system dengue virus type 4

Sequence of Coagulation factor X (P00742 41-179 limits assumed): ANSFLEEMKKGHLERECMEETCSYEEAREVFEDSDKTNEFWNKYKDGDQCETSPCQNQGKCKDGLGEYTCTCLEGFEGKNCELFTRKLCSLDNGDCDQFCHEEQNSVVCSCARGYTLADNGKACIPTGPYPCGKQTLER
Sequence of Coagulation factor X (P00742 235-488 limits assumed): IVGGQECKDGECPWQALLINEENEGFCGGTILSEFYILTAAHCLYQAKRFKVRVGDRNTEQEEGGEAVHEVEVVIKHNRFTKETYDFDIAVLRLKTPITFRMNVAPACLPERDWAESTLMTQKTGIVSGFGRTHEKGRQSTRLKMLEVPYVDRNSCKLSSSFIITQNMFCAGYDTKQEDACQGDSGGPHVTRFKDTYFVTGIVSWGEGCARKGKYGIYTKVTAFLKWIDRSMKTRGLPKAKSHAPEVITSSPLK

Clc1cc(OCc2nnc3sc(Cc4ccccc4)nn23)c(Cl)cc1OCc1nnc2sc(Cc3ccccc3)nn12
EC50 [1]: 17000 nM
CC50 at 24 h [2]: > 200000 nM

O=C1C=C/C(=N\Nc2ccc([N+](=O)[O-])cc2Cl)C=C1C(=O)Nc1cccc(Cl)c1
CC50 at 42 h [3]: 48800 nM
EC50 [4]: 1270 nM
EC50 [5]: 810 nM
EC50 [6]: 1000 nM

N=C(N)N[C@H]1CC[C@H](CNC(=O)[C@H](CCCCN)NC(=O)[C@H](CCCCN)NC(=O)Cc2ccc(Cl)c(Cl)c2)CC1
Ki [7]: > 200000 nM
Ki [8]: > 500000 nM

Oc1ccccc1C(Nc1nccs1)c1ccc2cccnc2c1O (stereo not drawn)
K [9]: 3.4 µM

NCc1ccc(-c2ncc(OCC3CCNCC3)nc2-c2ccc(-c3cn[nH]c3)cc2)cc1
IC50 [10]: 200 nM

C=CCc1ccc(OCc2cn(Cc3ccccc3Br)nn2)c(OC)c1
CC50 at 24 h [11]: > 300000 nM
EC50 [12]: 14000 nM
EC50 [13]: 14000 nM
EC50 [14]: 14000 nM
EC50 [15]: 14000 nM

O=C1OC2(c3ccccc31)c1cc(I)c(O)c(I)c1Oc1c2cc(I)c(O)c1I [ERYTHROSINE]
EC50 [5]: 1200 nM
EC50 [6]: 620 nM
EC50 [16]: 660 nM

N=C(N)Nc1ccc(OC(=O)c2ccc(NC(=N)N)cc2)cc1
K [17]: 4.6 µM

Cc1ccc(C(=O)c2cc(O)c(O)c([N+](=O)[O-])c2)cc1 [TOLCAPONE]
CC50 at 24 h [18]: 29200 nM
EC50 [19]: 2000 nM

CCc1ccc(NC(=O)CSc2nc3ccc(NC(=O)CSc4nnc(-c5ccccc5)[nH]4)cc3s2)cc1
K [20]: 2.8 µM

Oc1cccc(-c2c3nc(c(-c4cccc(O)c4)c4ccc([nH]4)c(-c4cccc(O)c4)c4nc(c(-c5cccc(O)c5)c5ccc2[nH]5)CC4)C=C3)c1 [TEMOPORFIN]
CC50 at 42 h [3]: 40700 nM
EC50 ([21]; A549, 42 h): 10 nM
EC90 ([21]; A549, time 42 hrs): 30 nM
EC50 [22]: 22 nM
EC50 [23]: 20 nM

N=C(N)N[C@H]1CCCCNC(=O)[C@H](CCCCN)NC(=O)[C@H](CCCCN)NC(=O)CCNC(=O)CNC(=O)CNC1=O (cyclo(GG[βAla]KK[X1]))
Ki [24]: 160 nM
